The nature of series [1]: Antioxidant power: peroxide index during oxidation of linoleic acid (method of CARNAT and POURRAT, linoleic acid instead of linseed oil). As for the experimental part:
La mesure du pouvoir antioxydant est effectuée selon la méthode décrite par CARNAT et POURRAT (Ann. Pharm. Fr. 1979, 37, n° 3-4, p. 119-124) en remplaçant l'huile de lin par de l'acide linoléique. L'oxydation de l'acide linoléique est suivie chaque jour par une mesure de l'indice de péroxyde Ip.
Dans un flacon contenant l'acide linoléique, on ajoute 15 ml de CHCl3, 20 ml d'acide acétique RP puis 1 ml de solution aqueuse saturée de IK. On agite une minute et on laisse reposer le flacon 5 minutes à l'obscurité.
A près voir ajouté 100 ml d'eau, on dose l'iode libéré par du thiosulfate de sodium 0,01 N.

Series [2] deals with lipase. The experiment in a line: Antilipase power: inhibition of hydrolysis of glycerol tributyrate by lipase. Type of series: biochemical. The settings on record: substrate tributyrate de glycérol. As for the experimental part:
Le milieu d'incubation témoin ne contient que des acides gras estérifiés (tributyrate de glycérol).
L'ajout de lipase dans le milieu entraîne l'hydrolyse du tributyrate de glycérol.
L'incorporation de L-thiazolidine-4 carboxylate de zinc avant l'adjonction de lipase empêche la libération d'acide butyrique. Les résultats obtenus sont regroupés dans le tableau suivant : […]

Series [3] in a line: Solubility. Type of series: physicochemical. Conditions: dans les solvants organiques. The source says:
Solubilité : Soluble dans l'eau à 1 %. Insoluble dans les solvants organiques.

Series [4] is described as follows: Local tolerance on shaved flank. The series is classed as in vivo. The settings on record: 5 cobayes albinos adultes; application three times a week for two weeks on shaved flank. The source says: La tolérance a été recherchée sur 5 cobayes albinos adultes.

For L-thiazolidine-4 carboxylate de zinc, the “Indice de péroxydes” value in series [1] (Temps 0 h) is given as 0,91; in series [1] (Temps 24 h), 12,7; in series [1] (Temps 48 h), 25.2. The “% d'inhibition mesuré” value in series [2] (5 mg) is on record as 52%; in series [2] (10 mg) it was 71,5%. Also, the Solubilité entry in series [3] was “Insoluble”. Further, in series [4], the Tolérance locale entry was “aucune réaction”.
